Counter-ions that a name gives are not always drawn. Like-named read-outs stand apart in the source and are kept apart here.
Experiments:
JARID1B = molecular target: T1, JARID1B (Homo sapiens, UniProt Q9UGL1); experiment: FLAG-JARID1B histone demethylase assay with AlphaScreen detection (HTS and dose response); assay type: biochemical; settings: for Assay − Artifact Signal (percent): assay signal minus artifact signal; for inhibition at 20 µM / Inhibitory effect (percent): high-throughput screen, compound 20 μM; for inhibition at 20 µM: read-out: Inhibitory effect (percent); for Assay Signal (percent) / Validation result of HTS active: effect of the compound in the JARID1B AlphaScreen demethylase assay: validation of HTS actives; for Assay Signal (percent): effect of compound in JARID1B AlphaScreen assay; for Validation result of HTS active: effect of the compound in the JARID1B AlphaScreen demethylase assay: total signal before subtraction of artifact signal;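 for Assay Signal (percent): compound tested at 20 µM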;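 for Assay − Artifact Signal (percent): compound tested at 20 µM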;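 for all read-outs here: FLAG-tagged JARID1B at 4 nM acting on a biotinylated H3K4me3 peptide, demethylation read by AlphaScreen luminescence, with hits checked against bio-H3K4me2 without enzyme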
T1 construct: The FLAG tagged full length JARID1B enzyme was expressed in Sf21 insect cells using FLAG-JARID1B baculoviruses; FLAG (N); made in house; host or cells: Sf21 insect cells (baculovirus)

[1] = AlphaScreen counterscreen against bio-H3K4me2 peptide in the absence of enzyme (artifact signal); settings: for Artifact Signal (percent): effect of the compound when incubated with bio-H3K4me2 peptide (counterscreen, no enzyme); for Artifact signal: effect of the compound when it is incubated with bio-H3K4me2 peptide: counterscreen, no enzyme;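 for all read-outs here: counterscreen run without enzyme against bio-H3K4me2 peptide to remove false positive hits from the JARID1 demethylase AlphaScreen screen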
[2] = standard demethylase conditions (10 μM α-KG, 50 μM Fe (II))
[3] = IDs marked *: additional hits under reaction condition with 1 mM α-KG

T1 sequence (Q9UGL1 whole entry): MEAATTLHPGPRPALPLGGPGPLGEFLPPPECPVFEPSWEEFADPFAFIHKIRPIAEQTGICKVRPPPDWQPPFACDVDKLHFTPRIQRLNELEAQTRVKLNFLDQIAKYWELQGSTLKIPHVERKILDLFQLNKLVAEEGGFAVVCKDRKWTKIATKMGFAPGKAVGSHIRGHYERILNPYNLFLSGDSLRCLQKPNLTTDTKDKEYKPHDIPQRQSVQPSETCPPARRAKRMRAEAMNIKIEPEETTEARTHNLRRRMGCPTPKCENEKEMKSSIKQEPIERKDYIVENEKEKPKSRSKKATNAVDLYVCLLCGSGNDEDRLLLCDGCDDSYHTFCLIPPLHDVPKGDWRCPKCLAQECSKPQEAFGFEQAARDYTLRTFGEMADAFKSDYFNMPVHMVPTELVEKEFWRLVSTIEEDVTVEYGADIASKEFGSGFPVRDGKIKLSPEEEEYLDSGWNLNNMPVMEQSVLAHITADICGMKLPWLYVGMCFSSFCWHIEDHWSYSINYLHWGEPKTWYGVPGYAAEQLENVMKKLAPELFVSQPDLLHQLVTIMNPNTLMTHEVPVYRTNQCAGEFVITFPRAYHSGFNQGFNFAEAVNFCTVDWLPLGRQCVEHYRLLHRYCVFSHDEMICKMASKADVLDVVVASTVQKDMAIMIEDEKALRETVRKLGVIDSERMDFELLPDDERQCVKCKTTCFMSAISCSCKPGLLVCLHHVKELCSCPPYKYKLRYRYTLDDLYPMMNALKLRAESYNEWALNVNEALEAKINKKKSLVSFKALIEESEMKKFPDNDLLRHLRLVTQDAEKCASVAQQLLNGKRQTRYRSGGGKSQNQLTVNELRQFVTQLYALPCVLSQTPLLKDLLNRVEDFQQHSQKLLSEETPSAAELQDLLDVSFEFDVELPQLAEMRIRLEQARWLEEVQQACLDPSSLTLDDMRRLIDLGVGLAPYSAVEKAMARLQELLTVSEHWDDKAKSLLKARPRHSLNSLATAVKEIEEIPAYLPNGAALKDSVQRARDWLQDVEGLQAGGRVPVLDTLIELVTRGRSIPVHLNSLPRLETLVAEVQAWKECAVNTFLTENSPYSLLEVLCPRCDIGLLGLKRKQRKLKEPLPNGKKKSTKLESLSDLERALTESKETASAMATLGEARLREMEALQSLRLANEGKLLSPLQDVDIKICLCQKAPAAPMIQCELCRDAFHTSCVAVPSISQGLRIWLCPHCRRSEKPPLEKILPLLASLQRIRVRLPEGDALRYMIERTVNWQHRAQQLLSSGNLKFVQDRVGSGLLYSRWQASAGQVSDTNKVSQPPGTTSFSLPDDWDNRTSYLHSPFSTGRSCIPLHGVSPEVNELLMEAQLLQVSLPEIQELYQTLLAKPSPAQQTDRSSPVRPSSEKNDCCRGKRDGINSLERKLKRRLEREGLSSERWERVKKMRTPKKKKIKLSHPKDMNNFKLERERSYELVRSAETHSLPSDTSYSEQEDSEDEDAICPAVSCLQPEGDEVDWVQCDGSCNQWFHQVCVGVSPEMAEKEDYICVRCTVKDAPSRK

Compound	Assay − Artifact Signal (percent) (JARID1B)	inhibition at 20 µM (JARID1B; [2])	Assay Signal (percent) (JARID1B)	Artifact Signal (percent) [1]	Validation result of HTS active: effect of the compound in the JARID1B AlphaScreen demethylase assay (JARID1B)	Artifact signal: effect of the compound when it is incubated with bio-H3K4me2 peptide [1]	inhibition at 20 µM (JARID1B; [3])	Inhibitory effect (percent) (JARID1B; [2])
C=NC(C(=O)N[C@H]1C(=O)N2C1SC(C)(C)C2C(=O)O)c1ccccc1 (stereo in doubt) [YU034263, METAMPICILLIN SODIUM, reference compound]	24.14%	95.6%	24.27%	0.13%	3.14	0.44	–	–
O=C(OC[C@H]1O[C@@H](OC(=O)c2cc(O)c(O)c(OC(=O)c3cc(O)c(O)c(O)c3)c2)[C@H](OC(=O)c2cc(O)c(O)c(OC(=O)c3cc(O)c(O)c(O)c3)c2)[C@@H](OC(=O)c2cc(O)c(O)c(OC(=O)c3cc(O)c(O)c(O)c3)c2)[C@@H]1OC(=O)c1cc(O)c(O)c(OC(=O)c2cc(O)c(O)c(O)c2)c1)c1cc(O)c(O)c(OC(=O)c2cc(O)c(O)c(O)c2)c1 (stereo in doubt) [YU034398, TANNIC ACID, reference compound]	–	105%	–	–	104.83	99.54	–	–
COc1cccc2c1C(=O)c1c(O)c3c(c(O)c1C2=O)C[C@@](O)(C(=O)CO)C[C@@H]3O[C@H]1C[C@H](N)[C@@H](O)[C@H](C)O1.Cl (stereo in doubt) [YU039604, EPIRUBICIN HYDROCHLORIDE, reference compound]	–	81.9%	–	–	10.74	3.76	–	–
COc1cccc2c1C(=O)c1c(O)c3c(c(O)c1C2=O)C[C@@](O)(C(=O)CO)C[C@@H]3O[C@H]1C[C@H](N)[C@H](O)[C@H](C)O1.Cl (stereo in doubt) [YU039629, DOXORUBICIN HYDROCHLORIDE, reference compound]	–	80.3%	–	–	8.94	3.92	–	–
CC(=O)[C@]1(O)Cc2c(O)c3c(c(O)c2[C@@H](O[C@H]2C[C@H](N)[C@H](O)[C@H](C)O2)C1)C(=O)c1ccccc1C3=O.Cl (stereo in doubt) [YU040321, IDARUBICIN HCl, reference compound]	–	92.3%	–	–	−11.32	−9.53	–	–
O=C(O[C@@H]1Cc2c(O)cc(O)cc2O[C@@H]1c1cc(O)c(O)c(O)c1-c1c([C@H]2Oc3cc(O)cc(O)c3C[C@H]2OC(=O)c2cc(O)c(O)c(O)c2)cc(O)c(O)c1O)c1cc(O)c(O)c(O)c1 (stereo in doubt) [YU155084, 2,2-BISEPIGALLO- CATECHIN DIGALLATE, reference compound]	–	102%	–	–	98.89	91.60	–	–
O=C(O)CC(CC(=O)Nc1cc(C(F)(F)F)ccc1N1CCOCC1)c1ccccc1 (centres unmarked) [YU016748]	8.43%	104%	19.64%	11.20%	–	–	–	–
NS(=O)(=O)c1cccc(NC(=O)c2cccnc2Oc2ccccc2)c1 [YU016812]	–	34.2%	–	–	10.22	13.27	–	–
O=C1c2ccccc2C(=O)c2c(NCCc3ccc(O)cc3)ccc(NCCc3ccc(O)cc3)c21 [YU019467, BML-266, reference compound]	20.91%	–	76.09%	55.18%	–	–	42.1%	–
CC(C)=CCc1c2c(c3occ(-c4ccc(O)c(O)c4)c(=O)c3c1O)C=CC(C)(C)O2 [YU033628, POMIFERIN, reference compound]	–	–	–	–	6.60	13.55	–	68.25%
Oc1cc(O)c2c(c1)O[C@H](c1ccc(O)c(O)c1)[C@@H](O)C2 [YU033631, CIANIDANOL, reference compound]	26.12%	–	30.96%	4.84%	–	–	41.5%	–
C[C@@H]1O[C@@H](OC[C@H]2OC(OC3=C(c4ccc(O)c(O)c4)Oc4cc(O)cc(O)c4C3O)[C@H](O)[C@@H](O)[C@@H]2O)[C@H](O)[C@H](O)[C@H]1O (some centres unmarked) [YU033654, RUTOSIDE (rutin), reference compound]	52.71%	65.8%	58.08%	5.37%	–	–	–	–
C[n+]1cc2c3c(ccc2c2ccc4cc5c(cc4c21)OCO5)OCO3 [YU033662, SANGUINARINE SULFATE, reference compound]	58.64%	–	67.85%	9.21%	–	–	–	86.66%
O=C1c2c(O)cccc2Cc2cccc(O)c21 [YU033694, ANTHRALIN, reference compound]	13.30%	–	22.65%	9.35%	–	–	51.7%	–
CN1CCc2cccc3c2C1Cc1ccc(O)c(O)c1-3 (centres unmarked) [YU033696, APOMORPHINE HYDROCHLORIDE, reference compound]	58.49%	89.4%	66.78%	8.29%	–	–	–	–
Cn1cnc([N+](=O)[O-])c1Sc1[nH]cnc2ncnc1-2 [YU033698, AZATHIOPRINE, reference compound]	–	88.8%	–	–	10.40	5.31	–	–

More lines, main results first:

Assay − Artifact Signal (percent) (JARID1B)	inhibition at 20 µM (JARID1B; [2])	Assay Signal (percent) (JARID1B)	Artifact Signal (percent) [1]	Validation result of HTS active: effect of the compound in the JARID1B AlphaScreen demethylase assay (JARID1B)	Artifact signal: effect of the compound when it is incubated with bio-H3K4me2 peptide [1]	inhibition at 20 µM (JARID1B; [3])	Compound	Inhibitory effect (percent) (JARID1B; [2])
23.04%	69.7%	46.05%	23.01%	–	–	–	N#CC(=Cc1cc(O)c(O)c(O)c1)C(N)=C(C#N)C#N (single isomer, unassigned) [YU154835, TYRPHOSTIN 51, reference compound]	–
41.45%	43.6%	35.57%	−5.88%	–	–	–	Cc1ccc(S(=O)(=O)C=CC#N)cc1 (single isomer, unassigned) [YU154885, BAY 11-7082, reference compound]	–
43.75%	48.7%	51.64%	7.90%	–	–	–	COC1=CC(=O)C(O)=CC1=CC=Cc1ccccc1 (single isomer, unassigned) [YU155007, OBTUSAQUINONE, reference compound]	–
–	67.3%	–	−1.92%	–	–	–	O=C(O)C=Cc1ccc(O)c(O)c1 (single isomer, unassigned) [YU155280, CAFFEIC ACID, reference compound]	–
–	–	–	–	105.15	99.80	–	O=C(OC[C@H]1O[C@@H](OC(=O)c2cc(O)c(O)c(OC(=O)c3cc(O)c(O)c(O)c3)c2)[C@H](OC(=O)c2cc(O)c(O)c(OC(=O)c3cc(O)c(O)c(O)c3)c2)[C@@H](OC(=O)c2cc(O)c(O)c(OC(=O)c3cc(O)c(O)c(O)c3)c2)[C@@H]1OC(=O)c1cc(O)c(O)c(OC(=O)c2cc(O)c(O)c(O)c2)c1)c1cc(O)c(O)c(OC(=O)c2cc(O)c(O)c(O)c2)c1 (stereo in doubt) [YU153507, TANNIC ACID, reference compound]	–
–	–	–	–	−19.45	−4.67	43.2%	CN[C@@H]1[C@H](O[C@H]2O[C@H](CO)[C@@H](N)[C@H](O)[C@H]2O)O[C@H]2C[C@@H](N)[C@H](O[C@@H]3[C@H](O)[C@@H](O)[C@H](N)C[C@@H]3N)O[C@@H]2[C@@H]1O (stereo in doubt) [YU155086, APRAMYCIN, reference compound]	–
–	105%	–	–	104.28	98.76	–	O=C(O[C@@H]1Cc2c(O)cc(O)cc2O[C@@H]1c1cc(O)c(=O)c2c(O)c(O)cc([C@H]3Oc4cc(O)cc(O)c4C[C@H]3OC(=O)c3cc(O)c(O)c(O)c3)c2c1)c1cc(O)c(O)c(O)c1 (stereo in doubt) [YU155100, THEAFLAVIN DIGALLATE, reference compound]	–
–	60%	–	–	72.27	68.65	–	O=C(O)c1cc(O)c2c(c1)[C@@H]([C@H]1c3cc(C(=O)O)cc(O)c3C(=O)c3c(O[C@H]4O[C@H](CO)[C@@H](O)[C@H](O)[C@H]4O)cccc31)c1cccc(O[C@H]3O[C@H](CO)[C@@H](O)[C@H](O)[C@H]3O)c1C2=O (stereo in doubt) [YU155201, SENNOSIDE A, reference compound]	–
–	105%	–	–	4.04	−0.34	–	O=C(O)c1cc(O)c2c(c1)[C@H]([C@H]1c3cc(C(=O)O)cc(O)c3C(=O)c3c(O[C@@H]4O[C@H](CO)[C@H](O)[C@H](O)[C@H]4O)cccc31)c1cccc(O[C@@H]3O[C@H](CO)[C@H](O)[C@H](O)[C@@H]3O)c1C2=O (stereo in doubt) [YU155305, SENNOSIDE B, reference compound]	–

— patent publication US20150272939A1, “Identification of Small Molecule Inhibitors of Jumonji AT-Rich Interactive Domain 1A (JARID1A) and 1B (JARID1B) Histone Demethylase” (Yale University, priority 2012, published 2015)
